Measured values as given in patent publication US20040138272A1, “1,4-Substituted cyclohexane derivatives” (priority 2002, published 2004).

System: NG108-15 neuronal cell line
Test: Rapid bioassay of neurite growth in NG108-15 cells
Format: cell-based
Protocol: When neurons are placed on inhibitory substrates in tissue culture, the neurons remain rounded. When an effective Rho kinase inhibitor is added to the neurons, the neurons are able to grow neurites on myelin substrates. The time that it takes for neurons to grow neurites after the addition of a Rho kinase inhibitor is about the same as the time that it takes for neurons to grow neurites if the neurons had been plated on growth permissive substrate such as laminin or polylysine, which time is typically 1 to 2 days in cell culture. An assessment of resulting neurite growth can be scored by visual means. If needed, a quantitative assessment of neurite growth can be performed. This involves measuring after a time such as 1 to 2 days the neurite length a) in control cultures where neurons are plated on myelin substrates and left untreated with Rho kinase inhibitor for such time, b) in positive control cultures, wherein for example neurons are plated on polylysine but left untreated with Rho kinase inhibitor for such time, and c) in cultures analogous to a) and b) that are treated with different concentrations of a Rho kinase inhibitor for such time. […] In this assay, NG108 cells are plated on plastic in the presence or absence of the test substance (a Rho kinase inhibitor). […] The relative efficacy can be assessed by fixing the cultures 5 hours after plating, and counting the number of cells that have grown neurites.
A rapid bioassay is used to determine the effect of a test compounds on the stimulation of neurite growth in vitro. A neuronal cell line, NG108-15 (ATCC HB-12317), is maintained in culture in Dulbecco's minimal essential medium (DMEM) supplemented with 10% fetal bovine serum, Penicillin/Streptomycin and HAT supplement (Gibco/BRL). For the bioassay, the cells are collected by trypsinisation and ressuspended in DMEM supplemented with 5% FBS, Penicillin/Streptomycin, HAT supplement and 0.25 mg/ml cAMP, adjusted to 1.0×10^4 cells/ml. The cells are plated into wells of a 96 well plate at 100 μls (1000 cells)/well. Cells are incubated 4 h at 37° C. and 5% CO2 in presence of small molecules or cethrin at a concentration of 1000 cells per well of a 96-wells plate in a final volume of 100 ul.
After incubation, cells are fixed by adding […] 16% PFA and 5.4 μls 2.5% glutaraldehyde to the media in each well. The wells are stained with cresyl violet 0.05% , 100 μls/well for 15 min. Cells with neurites (length≧one cell body) are counted using an inverted light microscope. The % neurite outgrowth is determined by calculating the number of cells with neurites over the total number of counted cells.

Substance: (R)-trans-4-(But-3′-en-1′-amino)-N-(4″-pyridyl)cyclohexane Carboxamide Dihydrochloride [BA-1016]
- efficacy of the stereoisomers compared (FIG. 2) (BA-1016 versus BA-1017): better efficacy
- neurite outgrowth (FIG. 2) (NG108 cells, 3.1 to 31 μM): promote neurite outgrowth
